# Where a name gives a salt, the structure may show the parent alone.
# System: C. albicans E81022 strain
# Experiment: Experimental systemic candidal infection model in mice
# Format: in vivo
# Conditions: peroral (into the stomach), female ICR mice infected i.v. with C. albicans E81022, observed until 14 days after infection
# Description: 1. Experimental Systemic Candidal Infection Model in Mice
# A standing culture of C. albicans E81022 strain was carried out for 48 hours at 30° C in sabouraud dextrose agar medium (SDA), the recovered fungal cells were suspended in sterilized physiological saline. By counting the fungal number on cytometry plate, the suspension was diluted to 2×10^7 cells/mL with sterilized physiological saline to serve fungal inoculum.
# The fungal inoculum was used in the amounts of 0.2 mL to inoculate 4.5 to 5.5 week-old female ICR mice in the tail vein (4×10^6 cells/mouse).
# From 0.5 and 1 hours after fungal inoculation, 0.2 mL of agent solution (compound of Reference Example 1 dissolved to 5 mg/ml in 50 mM hydrochloric acid, diluted suitably in sterile water, and then, diluted 10-fold in 5% fructose solution) was administered into the stomach using a peroral probe twice every 6 hours. […]
# The protective effect was determined by observing lifeldeath until 14 days after infection and calculating the mean survival days.
structure (smiles),measurement,setting,value
"Nc1ncccc1-c1cc(Cc2ccc(COc3ccccn3)cc2)no1 [Hydrochloride of Reference Example 1, 3-(3-(4-(Pyridin-2-yloxymethyl)-benzyl)-isoxazol-5-yl)-pyridin-2-yl amine]",Mean Survival Days,2.5 mg/kg,11.0 days
same,Mean Survival Days,5 mg/kg,13.4 days

# Source: patent publication US8058444B2, “Heterocycle-substituted pyridine derivative's salt or crystal thereof” (Eisai R&D Management Co., Ltd., priority 2007, dated 2011)
